{"source": "paper PMC8948292", "about": "“Combining PEGylated mito-atovaquone with MCT and Krebs cycle redox inhibitors as a potential strategy to abrogate tumor cell proliferation” (Scientific Reports, 2022)", "key": {"HCT-116 cells": {"test_system": "HCT-116 cells", "assay": "Cell proliferation (cell confluence), IncuCyte Live-Cell Analysis System", "format": "cell-based", "conditions": "Homo sapiens, HCT-116, read-out: IC50, inhibition of HCT-116 cell proliferation", "method": "(§1) The following cell lines were obtained from the American Type Culture Collection (Manassas, VA), where they were regularly authenticated: MiaPaCa-2 (ATCC Cat# CRL-1420, human pancreatic cancer cells), U87MG (ATCC Cat# HTB-14, human brain cancer cells), A549 (ATCC Cat# CCL-185, lung cancer cells), and HCT-116 (ATCC Cat# CCL-247, colon cancer cells). All cell lines were grown at 37 °C in 5% carbon dioxide. MiaPaCa-2 cells were maintained in Dulbecco's Modified Eagle Medium (Thermo Fisher Scientific, Waltham, MA; Cat# 11965) supplemented with 10% fetal bovine serum. U87MG, A549, and HCT-116 cells were maintained in RPMI 1640 medium (Thermo Fisher Scientific, Cat# 11875), supplemented with 10% fetal bovine serum. All cells were stored in liquid nitrogen and used within 20 passages after thawing.\n(§2) The IncuCyte Live-Cell Analysis System was used to monitor cell proliferation[3],[33],[67]. As shown in previous publications[3],[67], this imaging system is probe-free and noninvasive, and enables continuous monitoring of cell confluence over several days. The increase in the percentage of cell confluence was used as a surrogate marker of cell proliferation. In a 96-well plate, cells were plated at 1,000 cells per well in triplicates and left to adhere overnight. Cells were then treated with Mito-PEG-ATO analogs, and the cell confluency was recorded over several days in the IncuCyte Live-Cell Analysis System.\n(§3) Figure S7. Effects of Mito-PEG-ATO analogs on the proliferation of human lung cancer (A549) cells and human colon cancer (HCT-116) cells. (A) The effects of Mito-PEG5-ATO and ATO on the proliferation of A549 (left) or HCT-116 (right) cells were monitored in the IncuCyte Live-Cell Analysis system. The IncuCyte analyzer provides real-time updates on cell confluence, based on segmentation of high definition-phase contrast images. Representative cell images were shown as a segmentation mask illustrated in brown when control cells reached 90% confluence (vertical solid black line). (B) The IC50 values for A549 (left) or HCT-116 (right) cells were determined at the point at which control cells reached ~90% confluence (vertical solid black line). Relative cell confluence (control is taken as 100%) is plotted against concentration. Dashed lines represent the fitting curves used to determine the IC50 values as indicated. Data shown are the mean±SD."}, "A549 cells": {"test_system": "A549 cells", "assay": "Cell proliferation (cell confluence), IncuCyte Live-Cell Analysis System", "format": "cell-based", "conditions": "Homo sapiens, A549, read-out: IC50, inhibition of A549 cell proliferation", "method": "as §1, §2, §3"}, "[1]": {"test_system": "mitochondrial respiration (OCR) in intact MiaPaCa-2 cells", "assay": "Intact cell mitochondrial respiration (basal OCR), Seahorse XF-96", "format": "cell-based, human", "method_in_brief": "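MiaPaCa-2 cells were treated 24 h with Mito-PEG-ATO analogs, and OCR was read on a Seahorse XF-96; basal respiration was taken in intact cells. For complex I, permeabilized cells received 10 mM pyruvate, 1.5 mM malate and 10 mM malonate; for complex III, 0.5 mM duroquinol, 1 µM rotenone and 10 mM malonate, both in mannitol/sucrose buffer. IC50 values were derived from the OCR data.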"}}, "data": [{"smiles": "O=C1C(OCCOCCOCCOCCOCC[P+](c2ccccc2)(c2ccccc2)c2ccccc2)=C([C@H]2CC[C@H](c3ccc(Cl)cc3)CC2)C(=O)c2ccccc21.[Br-]", "note": "[Mito-PEG5-ATO, [14-((3-(trans-4-(4-chlorophenyl)cyclohexyl)-1,4-dioxo-1,4-dihydronaphthalen-2-yl)oxy)-3,6,9,12-tetraoxatetradecyl]triphenylphosphonium bromide]", "values": [{"measurement": "IC50", "setting": "HCT-116 cells", "value": 140, "unit": "nM"}, {"measurement": "IC50", "setting": "A549 cells", "value": 110, "unit": "nM"}, {"measurement": "OCR (pmol/min/µg protein)", "setting": "[1]; 0.003 µM, 24 h treatment, intact MiaPaCa-2 cells, baseline OCR, mean, n=4", "value": 13.36, "unit": "pmol/min/µg protein"}, {"measurement": "OCR (basal, intact cell mitochondrial respiration)", "setting": "[1]; 0.01 µM, 24 h treatment, intact MiaPaCa-2 cells, mean, n=4", "value": 12.51, "unit": "pmol/min/µg protein"}, {"measurement": "OCR (basal, intact cell mitochondrial respiration)", "setting": "[1]; 0.03 µM, 24 h treatment, intact MiaPaCa-2 cells, mean, n=4", "value": 9.91, "unit": "pmol/min/µg protein"}, {"measurement": "OCR (basal, intact cell mitochondrial respiration)", "setting": "[1]; 0.05 µM, 24 h treatment, intact MiaPaCa-2 cells, mean, n=4", "value": 9.30, "unit": "pmol/min/µg protein"}, {"measurement": "OCR (basal, intact cell mitochondrial respiration)", "setting": "[1]; 0.075 µM, 24 h treatment, intact MiaPaCa-2 cells, mean, n=4", "value": 8.05, "unit": "pmol/min/µg protein"}, {"measurement": "OCR (basal, intact cell mitochondrial respiration)", "setting": "[1]; 0.1 µM, 24 h treatment, intact MiaPaCa-2 cells, mean, n=4", "value": 5.43, "unit": "pmol/min/µg protein"}, {"measurement": "OCR (basal, intact cell mitochondrial respiration)", "setting": "[1]; 0.3 µM, 24 h treatment, intact MiaPaCa-2 cells, mean, n=4", "value": 0.36, "unit": "pmol/min/µg protein"}, {"measurement": "OCR (basal, intact cell mitochondrial respiration)", "setting": "[1]; 0.5 µM, 24 h treatment, intact MiaPaCa-2 cells, mean, n=4", "value": 1.83, "unit": "pmol/min/µg protein"}, {"measurement": "OCR (basal, intact cell mitochondrial respiration)", "setting": "[1]; 1 µM, 24 h treatment, intact MiaPaCa-2 cells, mean, n=4", "value": 1.40, "unit": "pmol/min/µg protein"}, {"measurement": "OCR (basal, intact cell mitochondrial respiration)", "setting": "[1]; 3 µM, 24 h treatment, intact MiaPaCa-2 cells, mean, n=4", "value": 0.84, "unit": "pmol/min/µg protein"}, {"measurement": "OCR (basal, intact cell mitochondrial respiration)", "setting": "[1]; 10 µM, 24 h treatment, intact MiaPaCa-2 cells, mean, n=4", "value": 0.55, "unit": "pmol/min/µg protein"}, {"measurement": "IC50", "setting": "[1]; Homo sapiens, MIA PaCa-2, 24 h, read-out: IC50, inhibition of basal OCR in intact cells", "value": 57, "unit": "nM"}]}]}
